Tests used:
Human stratum corneum = experiment: Thiol degradation assay ex vivo in human skin tissue; conditions: 2 hr
Method: Then, the mixtures were analyzed for free thiol moieties concentration.
The skin was cleaned, washed with PBS, and then the epidermis was peeled. The epidermis was incubated with 100 mL of 0.005% trypsin (in PBS) at 37° C. overnight. The stratum corneum was washed with HPLC grade water and transferred to a clean Eppendorf tube. The water was evaporated by SpeedVac and the stratum corneum was washed once again with ice cold hexane to exclude residuals lipids in the fraction. The solvent was removed by SpeedVac.
The stratum corneum pieces were weighed in order to determine their dry weight. 50 mg of dried stratum corneum was dissolved in 1M NaOH and mixed thoroughly for 1 hr. Stratum corneum was treated with or without the test items for 2 hr. L-acetylcysteine containing free thiol moieties served as positive control. To isolate the free thiol moieties from the mixture, the samples or blank (50 μl) were incubated with equal volume of TCA (trichloroacetic acid) for 5 min. Then, the tubes were centrifuge for 15 min at 10,000 rpm at room temperature. The pellet was evaluated. Ellman's reagent stock solution (3 mM) was prepared in methanol. […] The 96-well plates were incubated for 5 min at RT, mixed, and the optical absorbance was recorded at 412 nm. A standard calibration curve was read simultaneously without the TCA precipitation step.

HaCaT keratinocyte cells [1] = experiment: Cell cycle analysis by flow cytometry (FACS); assay type: cell-based, human; conditions: HaCaT cells synchronized by serum deprivation, 24 hr incubation
Method: HaCaT keratinocyte cells were synchronized by serum deprivation for 24 hr. […] Cell cycle was measured by FACS analysis. […] Staurosporine (100 nM) served as positive control. Mean±SEM; n=3. *p<0.05 for reduction from untreated control.
BrdU and FACS analyses were performed in one selected concentration. Two time points (24 hr and 48 hr) were chosen for the flow cytometry and one for the BrdU assay. In order to induce culture synchronization, serum-free medium was used prior of BrdU/FACS analyses in the 24 hr treatment groups.
The effect of selenium methionine on cell cycle was analyzed by flow cytometry (FACS). At the end of the treatment, the cells were harvested by trypsinization and counted. Approximately 1.3×10^6 cells were transferred to a new tube, centrifuged for 5 min at 1500 rpm (2-8° C.), and suspended in 0.5 ml of ice cold PBS. Then, the cells were fixed by adding 2.5 ml of 70% ethanol (2-8° C.) in a dropwise manner. The cells were stored at 2-8° C. for 48 hr at this stage. After 30 min of incubation, the samples were washed 3×1 mL PBS and 0.5 mL of ribonuclease stock solution (0.2 mg/mL supplemented with 0.1% (v/v) Triton x-100 in PBS) were added to the cell pellet for 1 hr at rt. This step was performed to ensure only DNA, not RNA, was stained. 0.5 mL of propidium iodide (PI, 100 μg/ml) was added to the samples still suspended in the ribonuclease stock solution. […]

HaCaT keratinocyte cells [2] = experiment: BrdU ELISA assay of turnover rate (DNA replication); assay type: cell-based, human; conditions: 48 hr incubation
Method: Turnover rate was measured by BrdU. […] Staurosporine served as positive control. Mean±SEM; n=3. *p<0.05 for reduction from untreated control.
HaCaT cells were incubated without or with the indicated concentrations of selenium cysteine for 48 hr. Turnover rate was measured by BrdU. […] Mean±SEM; n=3. *p<0.05 for reduction from untreated control.
To further investigate the impact of selenium methionine on the cells, the DNA replication rate of the cells was monitored by the BrdU assay. […] The assay was carried out in triplicate.
The BrdU ELISA assay was performed according to kit manufacturer instructions. Briefly, during the final 16 hours of culture, BrdU was added to each well. The cells were fixed, permeabilized, and DNA denatured by the addition of buffers. BrdU monoclonal antibody was pipetted into the wells and allowed to bind for one hour. Colorimetric evaluation of the turnover rate was recorded by ELISA reader. The BrdU assay captures a 16 hr window, which gives a wide view on the proliferation rate of the cells.
To further investigate the impact of selenium cysteine on the cells, the DNA replication rate of the cells was monitored by a BrdU incorporation assay. The purpose was to determine the ability of selenium cysteine at selected concentrations and times to reduce HaCaT keratinocytes cells turnover rate. The assay was carried out in triplicates. The positive control was stautosporine (100 nM). The cells were seeded in 6- or 96-well plates in complete growth medium at 37° C. with 5% CO2 under humidified atmosphere. The cells were incubated with or without selenium cysteine for the selected time points and concentrations determined in Example 6. BrdU incorporation was performed at the selected concentration and a 48 hr time point was chosen for the BrdU assay.

HaCaT keratinocyte cells [3] = experiment: Caspase-3 apoptosis assay; assay type: cell-based, human; conditions: HaCaT keratinocytes cell line, 72 hours
Method: Apoptosis was measured by the caspase-3 assay. Results are shown as percent of control. Staurosporine (100 nM) served as positive control. Mean±SEM; n=3. *p<0.05 for reduction from untreated control. HaCaT cells were seeded in a 96 well plates in concentration of 0.3×10^6 cells/mL in […] in complete growth medium (DMEM supplemented with 10% FBS and antibiotics). […] The assay was carried out in triplicates. Untreated cells were used as negative controls. At the end of each incubation period, cell viability and the extent of apoptosis were measured by MTT and Caspase-3 assays, respectively. A proper blank control was subtracted from the measurements.

HaCaT cells = experiment: MTT cell viability assay, dose response and time course; assay type: cell-based, human; conditions: for reduction of keratinocyte turnover or proliferation rate as determined by MTT cell viability tests: 72 hours
Method: Cell viability was measured by MTT assay.
Untreated cells were used as negative controls. […] A proper blank control was subtracted from the measurements.
The assay was carried out in triplicate. Untreated cells were used as negative controls.

Compound	elevation in thiol degradation assay releasing free SH moieties (Human stratum corneum)	effect on cell cycle (cell arrest properties) (HaCaT keratinocyte cells [1])	effect on proliferation of the cells (DNA replication, BrdU) (HaCaT keratinocyte cells [2])	activation of caspase-3 apoptosis marker (apoptotic effect) (HaCaT keratinocyte cells [3])	reduction of keratinocyte turnover or proliferation rate as determined by MTT cell viability tests (HaCaT cells)	cell viability (MTT) (HaCaT cells; positive control 0.1%)	reduction of proliferation of keratocytes (BrdU, DNA replication) (HaCaT keratinocyte cells [2])
O=C(O)c1ccccc1O [SA, Salicylic acid]	caused elevation	no cell arrest properties	does not affect the proliferation	significant increase	no dose dependent effect	–	–
CCCCCCCCCCCCOS(=O)(=O)[O-].[Na+] [SDS]	–	–	–	–	–	significantly decreased cell viability	–
CN[C@@H]1C[C@H]2O[C@@](C)([C@@H]1OC)n1c3ccccc3c3c4c(c5c6ccccc6n2c5c31)C(=O)NC4 [staurosporine]	–	–	dose-dependent reduction	–	–	–	–
selenium cysteine	–	–	–	–	significant dose-dependent effect	–	more than 90%
selenium methionine	up to 35%	elongation of the S phase in the cell cycle and lowered M phase	–	significant increase	significant dose-dependent effect	–	up to 60%

From patent US20230013824A1, “COMPOSITIONS FOR THE TREATMENT OF HYPERKERATOSIS DISORDERS” (Azura Ophthalmics Ltd., priority 2016, published 2023)
